{"source": "the supplement of paper PMC10307832", "assay_in_all_cases": "relative viability (nuclei count vs DMSO), 5 days (fraction); higher = more cells survive", "key": {"A-427": {"test_system": "A-427", "procedure,_shortened": "(§1)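 Nuclei were stained with Hoechst during a one-step fixation (final 0.05% Triton X-100, 1% formaldehyde, 1 ug/ml Hoechst) carried out 5 days after dosing, then counted on 4× images. The cells, lung cancer lines in 1536-well plates, had been dosed by pin tool the day after seeding with one drug alone or a fixed anchor-drug dose plus five library-drug doses (not always all listed) in √10 steps. Relative viability is the nuclei count in treated wells divided by that in vehicle wells, and each value is the median of duplicate plates.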"}, "BEN": {"test_system": "BEN", "procedure,_shortened": "as §1"}, "EKVX": {"test_system": "EKVX", "procedure,_shortened": "as §1"}, "LC-2-ad": {"test_system": "LC-2-ad", "procedure,_shortened": "as §1"}, "LCLC-97TM1": {"test_system": "LCLC-97TM1", "procedure,_shortened": "as §1"}, "LOU-NH91": {"test_system": "LOU-NH91", "procedure,_shortened": "as §1"}, "LU99A": {"test_system": "LU99A", "procedure,_shortened": "as §1"}, "NCI-H1355": {"test_system": "NCI-H1355", "procedure,_shortened": "as §1"}, "NCI-H1650": {"test_system": "NCI-H1650", "procedure,_shortened": "as §1"}, "NCI-H1666": {"test_system": "NCI-H1666", "procedure,_shortened": "as §1"}, "NCI-H1915": {"test_system": "NCI-H1915", "procedure,_shortened": "as §1"}, "NCI-H1993": {"test_system": "NCI-H1993", "procedure,_shortened": "as §1"}, "NCI-H2228": {"test_system": "NCI-H2228", "procedure,_shortened": "as §1"}, "NCI-H2347": {"test_system": "NCI-H2347", "procedure,_shortened": "as §1"}, "NCI-H23": {"test_system": "NCI-H23", "procedure,_shortened": "as §1"}, "NCI-H460": {"test_system": "NCI-H460", "procedure,_shortened": "as §1"}, "NCI-H520": {"test_system": "NCI-H520", "procedure,_shortened": "as §1"}, "NCI-H650": {"test_system": "NCI-H650", "procedure,_shortened": "as §1"}, "NCI-H838": {"test_system": "NCI-H838", "procedure,_shortened": "as §1"}, "PC-3 [JPC-3]": {"test_system": "PC-3 [JPC-3]", "procedure,_shortened": "as §1"}, "RERF-LC-KJ": {"test_system": "RERF-LC-KJ", "procedure,_shortened": "as §1"}, "SW 1573": {"test_system": "SW 1573", "procedure,_shortened": "as §1"}}, "data": [{"compound": "Cc1cnc(-c2cnc(NCCNc3ccc(C#N)cn3)nc2-c2ccc(Cl)cc2Cl)[nH]1", "note": "+ C[C@@H](Oc1cc(-c2cnn(C3CCNCC3)c2)cnc1N)c1c(Cl)ccc(F)c1Cl [Crizotinib] (partner 1 µM)", "values": [{"measurement": "relative viability", "setting": "A-427; first compound 0.08 µM", "value": 0.911}, {"measurement": "relative viability", "setting": "A-427; first compound 0.253 µM", "value": 0.972}, {"measurement": "relative viability", "setting": "A-427; first compound 0.8 µM", "value": 0.882}, {"measurement": "relative viability", "setting": "A-427; first compound 2.53 µM", "value": 0.826}, {"measurement": "relative viability", "setting": "BEN; first compound 0.08 µM", "value": 0.908}, {"measurement": "relative viability", "setting": "BEN; first compound 0.253 µM", "value": 0.787}, {"measurement": "relative viability", "setting": "BEN; first compound 0.8 µM", "value": 0.846}, {"measurement": "relative viability", "setting": "BEN; first compound 2.53 µM", "value": 0.876}, {"measurement": "relative viability", "setting": "EKVX; first compound 0.08 µM", "value": 0.938}, {"measurement": "relative viability", "setting": "EKVX; first compound 0.253 µM", "value": 0.823}, {"measurement": "relative viability", "setting": "EKVX; first compound 0.8 µM", "value": 0.854}, {"measurement": "relative viability", "setting": "EKVX; first compound 2.53 µM", "value": 0.993}, {"measurement": "relative viability", "setting": "LC-2-ad; first compound 0.08 µM", "value": 0.489}, {"measurement": "relative viability", "setting": "LC-2-ad; first compound 2.53 µM", "value": 0.426}, {"measurement": "relative viability", "setting": "LCLC-97TM1; first compound 0.08 µM", "value": 0.338}, {"measurement": "relative viability", "setting": "LCLC-97TM1; first compound 0.253 µM", "value": 0.401}, {"measurement": "relative viability", "setting": "LCLC-97TM1; first compound 0.8 µM", "value": 0.362}, {"measurement": "relative viability", "setting": "LCLC-97TM1; first compound 2.53 µM", "value": 0.349}, {"measurement": "relative viability", "setting": "LOU-NH91; first compound 0.08 µM", "value": 0.74}, {"measurement": "relative viability", "setting": "LOU-NH91; first compound 0.253 µM", "value": 0.724}, {"measurement": "relative viability", "setting": "LOU-NH91; first compound 0.8 µM", "value": 0.749}, {"measurement": "relative viability", "setting": "LOU-NH91; first compound 2.53 µM", "value": 0.782}, {"measurement": "relative viability", "setting": "LU99A; first compound 0.08 µM", "value": 0.621}, {"measurement": "relative viability", "setting": "LU99A; first compound 0.253 µM", "value": 0.459}, {"measurement": "relative viability", "setting": "LU99A; first compound 0.8 µM", "value": 0.534}, {"measurement": "relative viability", "setting": "LU99A; first compound 2.53 µM", "value": 0.592}, {"measurement": "relative viability", "setting": "NCI-H1355; first compound 0.08 µM", "value": 1.1}, {"measurement": "relative viability", "setting": "NCI-H1355; first compound 0.253 µM", "value": 0.9}, {"measurement": "relative viability", "setting": "NCI-H1355; first compound 0.8 µM", "value": 1}, {"measurement": "relative viability", "setting": "NCI-H1355; first compound 2.53 µM", "value": 0.992}, {"measurement": "relative viability", "setting": "NCI-H1650; first compound 0.08 µM", "value": 0.92}, {"measurement": "relative viability", "setting": "NCI-H1650; first compound 0.253 µM", "value": 0.909}, {"measurement": "relative viability", "setting": "NCI-H1650; first compound 0.8 µM", "value": 1.07}, {"measurement": "relative viability", "setting": "NCI-H1650; first compound 2.53 µM", "value": 0.844}, {"measurement": "relative viability", "setting": "NCI-H1666; first compound 0.08 µM", "value": 0.981}, {"measurement": "relative viability", "setting": "NCI-H1666; first compound 0.253 µM", "value": 0.822}, {"measurement": "relative viability", "setting": "NCI-H1666; first compound 0.8 µM", "value": 1.26}, {"measurement": "relative viability", "setting": "NCI-H1666; first compound 2.53 µM", "value": 1.19}, {"measurement": "relative viability", "setting": "NCI-H1915; first compound 0.08 µM", "value": 0.85}, {"measurement": "relative viability", "setting": "NCI-H1915; first compound 0.8 µM", "value": 0.896}, {"measurement": "relative viability", "setting": "NCI-H1915; first compound 2.53 µM", "value": 0.931}, {"measurement": "relative viability", "setting": "NCI-H1993; first compound 0.08 µM", "value": 0.804}, {"measurement": "relative viability", "setting": "NCI-H1993; first compound 0.253 µM", "value": 0.861}, {"measurement": "relative viability", "setting": "NCI-H1993; first compound 0.8 µM", "value": 0.884}, {"measurement": "relative viability", "setting": "NCI-H1993; first compound 2.53 µM", "value": 0.954}, {"measurement": "relative viability", "setting": "NCI-H2228; first compound 0.08 µM", "value": 0.47}, {"measurement": "relative viability", "setting": "NCI-H2228; first compound 0.253 µM", "value": 0.412}, {"measurement": "relative viability", "setting": "NCI-H2228; first compound 0.8 µM", "value": 0.612}, {"measurement": "relative viability", "setting": "NCI-H2228; first compound 2.53 µM", "value": 0.619}, {"measurement": "relative viability", "setting": "NCI-H2347; first compound 0.08 µM", "value": 0.734}, {"measurement": "relative viability", "setting": "NCI-H2347; first compound 0.253 µM", "value": 0.632}, {"measurement": "relative viability", "setting": "NCI-H2347; first compound 0.8 µM", "value": 0.753}, {"measurement": "relative viability", "setting": "NCI-H2347; first compound 2.53 µM", "value": 0.741}, {"measurement": "relative viability", "setting": "NCI-H23; first compound 0.08 µM", "value": 0.676}, {"measurement": "relative viability", "setting": "NCI-H23; first compound 0.253 µM", "value": 0.496}, {"measurement": "relative viability", "setting": "NCI-H23; first compound 0.8 µM", "value": 0.638}, {"measurement": "relative viability", "setting": "NCI-H23; first compound 2.53 µM", "value": 0.621}, {"measurement": "relative viability", "setting": "NCI-H460; first compound 0.08 µM", "value": 1.03}, {"measurement": "relative viability", "setting": "NCI-H460; first compound 0.253 µM", "value": 0.857}, {"measurement": "relative viability", "setting": "NCI-H460; first compound 0.8 µM", "value": 0.858}, {"measurement": "relative viability", "setting": "NCI-H460; first compound 2.53 µM", "value": 0.776}, {"measurement": "relative viability", "setting": "NCI-H520; first compound 0.08 µM", "value": 0.901}, {"measurement": "relative viability", "setting": "NCI-H520; first compound 0.253 µM", "value": 0.75}, {"measurement": "relative viability", "setting": "NCI-H520; first compound 0.8 µM", "value": 0.765}, {"measurement": "relative viability", "setting": "NCI-H520; first compound 2.53 µM", "value": 0.755}, {"measurement": "relative viability", "setting": "NCI-H650; first compound 0.08 µM", "value": 0.786}, {"measurement": "relative viability", "setting": "NCI-H650; first compound 0.253 µM", "value": 0.676}, {"measurement": "relative viability", "setting": "NCI-H650; first compound 0.8 µM", "value": 0.673}, {"measurement": "relative viability", "setting": "NCI-H650; first compound 2.53 µM", "value": 0.611}, {"measurement": "relative viability", "setting": "NCI-H838; first compound 0.08 µM", "value": 0.855}, {"measurement": "relative viability", "setting": "NCI-H838; first compound 0.253 µM", "value": 0.807}, {"measurement": "relative viability", "setting": "NCI-H838; first compound 0.8 µM", "value": 0.951}, {"measurement": "relative viability", "setting": "NCI-H838; first compound 2.53 µM", "value": 1.01}, {"measurement": "relative viability", "setting": "PC-3 [JPC-3]; first compound 0.08 µM", "value": 0.936}, {"measurement": "relative viability", "setting": "PC-3 [JPC-3]; first compound 0.253 µM", "value": 0.894}, {"measurement": "relative viability", "setting": "PC-3 [JPC-3]; first compound 0.8 µM", "value": 0.999}, {"measurement": "relative viability", "setting": "PC-3 [JPC-3]; first compound 2.53 µM", "value": 0.953}, {"measurement": "relative viability", "setting": "RERF-LC-KJ; first compound 0.08 µM", "value": 0.833}, {"measurement": "relative viability", "setting": "RERF-LC-KJ; first compound 0.253 µM", "value": 0.712}, {"measurement": "relative viability", "setting": "RERF-LC-KJ; first compound 0.8 µM", "value": 0.794}, {"measurement": "relative viability", "setting": "RERF-LC-KJ; first compound 2.53 µM", "value": 0.846}, {"measurement": "relative viability", "setting": "SW 1573; first compound 0.08 µM", "value": 0.932}, {"measurement": "relative viability", "setting": "SW 1573; first compound 0.253 µM", "value": 0.879}, {"measurement": "relative viability", "setting": "SW 1573; first compound 0.8 µM", "value": 0.785}, {"measurement": "relative viability", "setting": "SW 1573; first compound 2.53 µM", "value": 0.772}]}]}
